Measured values as given in the supplement of paper PMC12205070.

Key:
Experiment in all cases: normalised number of viable cells after treatment (fraction of control); higher = more viable cells (less drug effect)
P1 Initial = tested on: P1 Initial (T-ALL xenograft cells from diagnosis)
Procedure: (§1)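 T-ALL PDX-derived cells (initial diagnosis or relapse samples of individual patients) co-cultured on hTERT-immortalized bone marrow MSCs in 384-well plates were treated with Cytarabine, Venetoclax, S-63845, A1331852 or FX1 (0.1 nM to 10,000 nM) for 72 h.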

P1 Relapse = tested on: P1 Relapse (T-ALL xenograft cells from relapse)
Procedure: as §1

P10 Initial = tested on: P10 Initial (T-ALL xenograft cells from diagnosis)
Procedure: as §1

P10 Relapse = tested on: P10 Relapse (T-ALL xenograft cells from relapse)
Procedure: as §1

P12 Initial = tested on: P12 Initial (T-ALL xenograft cells from diagnosis)
Procedure: as §1

P12 Relapse = tested on: P12 Relapse (T-ALL xenograft cells from relapse)
Procedure: as §1

P2 Initial = tested on: P2 Initial (T-ALL xenograft cells from diagnosis)
Procedure: as §1

P2 Relapse = tested on: P2 Relapse (T-ALL xenograft cells from relapse)
Procedure: as §1

P6 Initial = tested on: P6 Initial (T-ALL xenograft cells from diagnosis)
Procedure: as §1

P6 Relapse = tested on: P6 Relapse (T-ALL xenograft cells from relapse)
Procedure: as §1

P8 Initial = tested on: P8 Initial (T-ALL xenograft cells from diagnosis)
Procedure: as §1

P8 Relapse = tested on: P8 Relapse (T-ALL xenograft cells from relapse)
Procedure: as §1

P3 Initial = tested on: P3 Initial (T-ALL xenograft cells from diagnosis)
Procedure: as §1

P3 Relapse = tested on: P3 Relapse (T-ALL xenograft cells from relapse)
Procedure: as §1

Cc1c(-c2c(-c3ccc(F)o3)sc3ncnc(O[C@H](Cc4ccccc4OCc4ccnn4CC(F)(F)F)C(=O)O)c23)ccc(OCCN2CCN(C)CC2)c1Cl
normalised number of viable cells
Conditions	0.125 nM	0.13 nM	1 nM	1.25 nM	12.5 nM	31.25 nM	100 nM	625 nM	1250 nM	10000 nM
P1 Initial	1.16	–	1.05	–	0.838	–	0.231	–	0.054	0.0485
P1 Relapse	–	1.26	–	1.15	–	0.987	–	0.131	–	0.039
P2 Initial	–	0.99	–	0.918	–	0.86	–	0.197	–	0.129
P2 Relapse	–	1.05	–	1.04	–	0.878	–	0.7035	–	0.068
P6 Initial	–	1.02	–	1.08	–	0.638	–	0.0605	–	0.022
P6 Relapse	–	1.07	–	0.884	–	1.02	–	0.483	–	0.035
P8 Initial	–	1.09	–	1.08	–	1.04	–	0.54	–	0.0315
P8 Relapse	–	0.992	–	1.05	–	1.02	–	0.9355	–	0.0655
P10 Initial	–	1.29	–	1.17	–	0.639	–	0.225	–	0.0835
P10 Relapse	–	1.02	–	1.15	–	1.08	–	0.785	–	0.0695
P12 Initial	–	1.05	–	0.991	–	0.58	–	0.337	–	0.0575
P12 Relapse	–	0.277	–	1.52	–	0.199	–	0.048	–	0.0695

Nc1ccn([C@@H]2O[C@H](CO)[C@@H](O)[C@@H]2O)c(=O)n1 [Cytarabine]
Conditions	normalised number of viable cells
P1 Initial, 0.125 nM	0.988
P1 Initial, 1 nM	0.83
P1 Initial, 12.5 nM	0.396
P1 Initial, 100 nM	0.245
P1 Initial, 1250 nM	0.23
P1 Initial, 10000 nM	0.0865
P1 Relapse, 0.125 nM	0.84
P1 Relapse, 1 nM	0.683
P1 Relapse, 12.5 nM	0.426
P1 Relapse, 100 nM	0.354
P1 Relapse, 1250 nM	0.235
P1 Relapse, 10000 nM	0.224
P2 Initial, 0.998752 nM	1.83
P2 Initial, 9.98752 nM	1.97
P2 Initial, 99.8752 nM	0.894
P2 Initial, 998.752 nM	0.683
P2 Initial, 9987.52 nM	0.631
P2 Relapse, 0.998752 nM	0.981
P2 Relapse, 9.98752 nM	0.99
P2 Relapse, 99.8752 nM	0.973
P2 Relapse, 998.752 nM	0.804
P2 Relapse, 9987.52 nM	0.61
P3 Initial, 0.998752 nM	1.04
P3 Initial, 9.98752 nM	0.855
P3 Initial, 99.8752 nM	0.14
P3 Initial, 998.752 nM	0.0925
P3 Initial, 9987.52 nM	0.0805
P3 Relapse, 0.998752 nM	1.14
P3 Relapse, 9.98752 nM	0.684
P3 Relapse, 99.8752 nM	0.464
P3 Relapse, 998.752 nM	0.306
P3 Relapse, 9987.52 nM	0.143
P6 Initial, 0.998752 nM	0.95
P6 Initial, 9.98752 nM	0.6575
P6 Initial, 99.8752 nM	0.454
P6 Initial, 998.752 nM	0.248
P6 Initial, 9987.52 nM	0.239
P6 Relapse, 0.998752 nM	0.745
P6 Relapse, 9.98752 nM	1.28
P6 Relapse, 99.8752 nM	1.18
P6 Relapse, 998.752 nM	0.902
P6 Relapse, 9987.52 nM	0.852
P8 Initial, 0.998752 nM	1.67
P8 Initial, 9.98752 nM	1.54
P8 Initial, 99.8752 nM	0.489
P8 Initial, 998.752 nM	0.4715
P8 Initial, 9987.52 nM	0.577
P8 Relapse, 0.998752 nM	1.551
P8 Relapse, 9.98752 nM	1.57
P8 Relapse, 99.8752 nM	0.744
P8 Relapse, 998.752 nM	0.821
P8 Relapse, 9987.52 nM	0.599
P10 Initial, 0.998752 nM	1.45
P10 Initial, 9.98752 nM	1.4
P10 Initial, 99.8752 nM	0.472
P10 Initial, 998.752 nM	0.426
P10 Initial, 9987.52 nM	0.427
P10 Relapse, 0.998752 nM	1.08
P10 Relapse, 9.98752 nM	1
P10 Relapse, 99.8752 nM	0.737
P10 Relapse, 998.752 nM	0.712
P10 Relapse, 9987.52 nM	0.679
P12 Initial, 0.998752 nM	1.33
P12 Initial, 9.98752 nM	1.2
P12 Initial, 99.8752 nM	0.327
P12 Initial, 998.752 nM	0.313
P12 Initial, 9987.52 nM	0.593
P12 Relapse, 0.998752 nM	4.13
P12 Relapse, 9.98752 nM	5.01
P12 Relapse, 99.8752 nM	1.49
P12 Relapse, 998.752 nM	0.76
P12 Relapse, 9987.52 nM	0.446
